These results are taken from patent US20100093760A1, “METHODS FOR IDENTIFYING COMPOUNDS THAT MODULATE CELL SIGNALING AND METHODS EMPLOYING SUCH COMPOUNDS” (The General Hospital Corporation, priority 2006, published 2010).

Structures are written as SMILES. “Also recorded” adds a separate entry of the source.

Data set [1] relates to C2C12 cells. Briefly: BMP-induced alkaline phosphatase activity (osteogenic differentiation) in C2C12 cells. The format is cell-based. On the procedure: (§1) C2C12 cells were seeded into 96 well plates at 2000 cells per well in DMEM supplemented with 2% FBS. Wells were treated in quadruplicate with BMP ligands and Compound C/Dorsomorphin or vehicle. Cells were harvested after 5 days in culture with 50 μl Tris buffered saline/1% Triton X-100. Lysates were added to p-nitro-phenylphosphate reagent in 96-well plates (Sigma) for 1 hour, and alkaline phosphatase activity expressed as absorbance at 405 nm. Cell viability and quantity were measured by Cell-titer Glo (Promega) and binding of nuclear dye CyQuant (Invitrogen), respectively, using replicate wells treated identically to those used for alkaline phosphatase measurements.

For data set [2], the system named is C2C12 cells. Briefly: C2C12 cell count (CyQuant). It counts as cell-based. To be noted: 4 μM. On the procedure:
as §1

The test system of a further data set is hepcidin (HAMP) mRNA. Briefly: Hepcidin mRNA qRT-PCR in HepG2 cells. It counts as cell-based, human. The settings on record: 10 μM in combination with BMP2. On the procedure: Quantitative RT-PCR was performed for mRNA encoding Id1 or human hepcidin (HAMP) as previously described (Babitt et al., Nat. Genet. 38:531-539, 2006; Yu et al., J. Biol. Chem. 280:24443-24450, 2005), and normalized to 18S ribosomal RNA (rRNA) or β-actin mRNA levels.
On the technique in general: In qPCR the cycle at which signal appears reflects the starting amount.

The subject of data set [3] is hepatic SMAD1/5/8 phosphorylation. Briefly: Iron-dextran challenge: hepatic SMAD1/5/8 phosphorylation in adult zebrafish. The format is in vivo. On the set-up: dose or concentration left out as unconfirmed. To be noted: co-injection with iron-dextran, intraperitoneal, 1 hour.
Data set [4] concerns zebrafish vascular development (KDR). Briefly: Zebrafish vascular development (effects of KDR inhibition). It counts as in vivo. The settings on record: at the doses used for dorsalization.
The conditions of data set [5]: mice, 10 to 30 mg/kg each day (Kim et al. 2004); cited from earlier work.

Regarding `c1cc(-c2cnn3cc(-c4ccc(OCCN5CCCCC5)cc4)cnc23)ccn1` [Compound C/Dorsomorphin], the “inhibition of osteogenic differentiation compared with noggin” value in the data set with C2C12 cells [1] (4 μM vs noggin 100 ng/ml) was “more potent than that seen with pretreatment of cells with 100 ng/ml of noggin”. Moreover, in the data set on C2C12 cells [1] (4 μM, 5 days), the “effect on BMP4- or BMP6-induced alkaline phosphatase activity (osteogenic differentiation)” value is “completely inhibits; also recorded: almost completely abolished; also recorded: inhibited”. The “effect on cell count / cell toxicity” value with C2C12 cells [2] is “not associated with cell toxicity; also recorded: no significant effects; also recorded: without cellular toxicity; also recorded: did not affect cell count”. In the data set on hepcidin (HAMP) mRNA, the “hepcidin mRNA with BMP2 co-treatment” value is recorded as “abolished; also recorded: below the basal level”. The “reduction of hepatic SMAD1/5/8 phosphorylation vs iron-dextran and vehicle” value in data set [3] was roughly 3 fold. The “effects of KDR inhibition on vascular development (intersomitic blood vessels)” value in data set [4] is “did not observe any of the known effects of KDR inhibition”. For the same molecule, the tolerability result in data set [5] is “without obvious toxicity”.
